Entries after “also recorded” stand apart in the source; their conditions may differ.
Experiments:
[1] = NO2-OA controlled release in vitro from PLGA microparticles and scaffolds in lipase solution; format: physicochemical
Description: NO2-OA in microparticles and scaffolds was extracted by dissolving the samples in 200 μL, HFIP with 0.5 pmol NO2−^[13C18]OA internal standard, and extracted three times with 1 mL methanol, each time vortexing and centrifuging at 15,000 xg for 10 min at 4° C. Then, the collected methanol was dried under a stream of nitrogen, reconstituted in 100 μL methanol and analyzed by high performance liquid chromatography-electrospray ionization-tandem mass spectrometry (HPLC-ESI-MS/MS). Controlled release (n=3) of NO2-OA in microparticles (FIG. 1D) and scaffolds (FIGS. 3B) was studied in 50 mM phosphate buffer, pH 7.4 with 0.2 mg/mL porcine lipase at 37° C. Aliquots were collected at various time points, spiked with 15 pmol NO2−^[13C18]OA, 1 mL acetonitrile was added and then, samples were vortexed, centrifuged and analyzed by HPLC-ESI-MS/MS. At each time point a fresh incubating solution was utilized.
Analysis of NO2-OA was performed by HPLC-ESI-MS/MS. […] NO2-OA was analyzed in negative mode with the following parameters: declustering potential (DP)—75V, collision energy (CE)—35 eV, desolvation temperature of 700° C., and a multiple reaction monitoring (MRM) transition 326.3/46. Quantification of NO2-OA in samples was performed by stable isotopic dilution analysis using a NO2-OA calibration curve in the presence of NO2-[^13C18]OA internal standard (MRM 344.3/46).

[2] = test system: rat abdominal wall partial thickness defect; experiment: Rat abdominal wall partial thickness defect repair, histological assessment of 8 wk explants; format: in vivo, Sprague-Dawley rats
Description: At 8 wk post-implantation samples were retrieved, fixed in 10% formalin solution for ≥24 h, embedded in paraffin and serially sectioned into specimens 10 μm in thickness. Next, hematoxylin and eosin (H&E) and Masson' trichrome (MT) staining of pre implantation scaffolds and explants were utilized to evaluate: polymeric fiber volume, newly formed tissue, cellular infiltration, and scar area (FIG. 4-FIG. 5). In order to assess the foreign body response a custom-made algorithm, developed in Matlab (Mathwork, Natick Mass.), was utilized to segment and quantify collagen rich areas (FIG. 4G-4H). The algorithm is based on a two-phase iterative process known as k means clustering. In step one, given an integer k and an array of data, k cluster centroids were identified minimizing the total squared Euclidean distance between each pixel and its closest RGB centroid. With k=4, the algorithm segmented each image into 4 color groups corresponding to background, muscle tissue, collagen or de-novo ECM, and scaffold.
At the macroscopic scale, cross sections were utilized to quantify explant thickness. NIH Image J was utilized to identify the explant central line, draw equi-spaced segments (n=10) perpendicular to this line intersecting the abdominal wall border, and calculate the mean of their lengths. This measure was coupled with in situ explant visual inspection (FIG. 6). […]

[3] = test system: rat abdominal wall partial thickness defect; experiment: Blood vessel morphological assessment (MT staining, CD31/αSMA immunofluorescence) of 8 wk explants; format: in vivo, Sprague-Dawley rats; conditions: rat abdominal wall defect model, 8 wk end-point
Text: Adult female Sprague-Dawley rats 10-12 wk old, ˜250 g in weight (Harlan Sprague Dawley Inc., Indianapolis, Ind., USA) were used for the abdominal wall repair procedure. The experiment was designed to assess the effects of NO2-FA controlled release on angiogenesis. Therefore, a partial wall defect was preferred to a full wall defect model, this enabled evaluation of the impact of drug release on the tissue underneath the abdominal wall patch. The surgical protocol was adapted from a procedure previously established Lai et al. Peritoneal Regeneration Induced by an Acellular Bovine Pericardial Patch in the Repair of Abdominal Wall Defects. Journal of Surgical Research 127, 85, 2005. In brief, inhalation of 1.25-2.5% (maintenance-induction) isoflurane with 100% oxygen was adopted as anesthetic. The skin was shaved and the surgical field was prepared by sterilization with povidone-iodine solution, the rats were positioned in dorsal recumbency on a heating blanket, the operating environment was kept sterile during the procedure. […]
Regional angiogenesis was investigated by combining morphological with topological information. Morphological assessment included quantification of blood vessel/mm^2 and vessel type and was performed with two distinct experiments: histological (FIG. 7, 9) and immunofluorescence assessment (FIG. 8). […]

NO2-OA release profile from PLGA microparticles ([1]; 50 mM phosphate buffer pH 7.4, 0.2 mg/mL porcine lipase, 37° C, effect of microparticle size): sigmoidal
duration of controlled NO2-OA release from PLGA microparticles ([1]; NO2-OA (1mM), particle size 1-50 μm range): up to 7 days
Compound: CCCCCCCC/C(=C\CCCCCCCC(=O)O)[N+](=O)[O-] [NO2-OA, 10-nitro-9-trans-octadecenoic acid]
abdominal wall thickness of explants ([2]; 8 wk, compared with healthy native rat abdominal wall): significantly increased wall thickness
fibrotic response ([2]; rat abdominal wall defect model): significantly reduce fibrotic response
regional angiogenesis / neovascularization [3]: additional effect; also recorded: promotes neovascularization; also recorded: significantly improved regional angiogenesis; also recorded: significantly enhanced regional angiogenesis

— patent US11576887B2, “Nitro-oleic acid controlled release platform to induce regional angiogenesis in abdominal wall repair” (University of Pittsburgh—Of the Commonwealth System of …, priority 2017, dated 2023)
